Measured values: patent US20190175690A1, “COMPOSITIONS AND METHODS FOR CARDIAC REPAIR” (CHILDREN'S MEDICAL CENTER CORPORATION, priority 2016, published 2019)
One block for each compound: values may come before it.

Key:
[1] = target: Dendra2
[2] = target: TEAD1-Dendra2 fusion protein (mouse) (UniProt P30051)
[3] = target: TEAD1-Dendra2 fusion protein (mouse) (UniProt P30051); remark: listed apart in the source
[4] = system: high salt diet induced heart failure; conditions: Cheng et al., 2008; cited from earlier work
[5] = system: VGLL4-mediated TEAD1 degradation; test: VGLL4-mediated TEAD1 degradation in co-transfected 293T cells (immunoblot); format: cell-based; conditions: 293T cells co-transfected with TEAD1 and VGLL4, inhibitors for 6 hours
Procedure: HA-VGLL4 was cloned downstream of TetO promoter. pEF1α::rtTA was used to express rtTA. The expression of HA-VGLL4 will be activated in the presence of both Dox and rtTA. […] 293T cells were co-transfected with pEF1α::rtTA and pTetO::HA-Vgll4. Twenty-four (24) hours after transfection, cells were treated with […] Dox for different hours. Immunoblotting was carried out to detect the expression of HA-VGLL4. […] Mouse Tead1 specific primers were used to measure relative Tead1-Dendra2 mRNA level by qRT-PCR. FIG. 8D depicts an immunoblot showing TEAD1 degradation is dependent on cysteine proteases and is independent of the proteasome. 293T cells were first co-transfected with TEAD1^fb and Vgll4-GFP plasmids. 1 day after transfection, cells were treated with indicated inhibitors for 6 hours. Dimethyl sulfoxide (DMSO, 0.1%) was used as control vehicle. β-tubulin was used as loading control.
Major pathways for protein degradation can include the proteasome and cysteine, serine, and threonine peptidases. To determine if these candidate pathways are involved in VGLL4-mediated TEAD1 degradation, the effect of MG132 (a universal proteasome inhibitor (Lee et al., 1998)), leupeptin (an inhibitor of serine and threonine peptidases (Umezawa, 1976)) and E64 (an inhibitor specific to cysteine proteases (Barrett et al., 1982)) on VGLL4-mediated TEAD1 degradation was studied.

[6] = system: TEAD1-YAP transcriptional activity; test: 8xGTIIC-Luci luciferase reporter assay in 293T cells with DOX-induced VGLL4; format: cell-based
Procedure: (§1) FIG. 7A is an immunoblot showing VGLL4 overexpression decreased TEAD1 protein level. Different doses of TEAD1 plasmids (indicated in μg) were co-transfected with 1.6 μg VGLL4-GFP plasmid. Cells were collected for western blot 24 hours after transfection. FIGS. 7B-7C show the generation and validation of TEAD1-Dendra2 construct. Tead1-Dendra2 plasmid was transfected into 293T cells. Western blot confirmed expression of TEAD1-Dendra2 fusion protein (FIG. 7B). TEAD1-Dendra2 merge fusion protein was green before illumination with 405 nm light. […] Cells were analyzed at the indicated time points. […] FIG. 7E is a graph showing the quantification of TEAD1-Dendra2 protein levels in FIG. 7D. *P<0.05. n=3. […] Relative red fluorescence intensity (RFI) was monitored for 20 minutes by taking one image per minute. n=6. […] Twenty-four (24) hours after transfection, cells were treated with Dox for the indicated number of hours, when cell extracts were analyzed for Firefly and Renilla luciferase activity. […]
The data indicates an additional mechanism, in which VGLL4 binding to TEAD1 promotes its degradation and thereby reduces the amount available to interact with YAP. To test additional mechanisms, the TEAD1 luciferase reporter 8xGTIIC-Luci (Dupont et al., 2011) was used as a read out of TEAD1-YAP transcriptional activity. […]

[7] = system: TEAD1-Dendra2; test: pulse-labeled TEAD1-Dendra2 live cell imaging in 293T cells; format: cell-based; conditions: photoconverted TEAD1-Dendra2, Dox-induced VGLL4
Procedure: as §1
DOX-induced VGLL4 expression was combined with live cell imaging of TEAD1-Dendra2 to specifically probe the effect of VGLL4 on TEAD1 stability. […] In the absence of VGLL4, TEAD1-Dendra2 protein fluorescence intensity dropped by 10% during the first 10 minutes, and then became relatively stable. […]

[8] = system: myocardial infarction; conditions: Dong et al., 2007; cited from earlier work
[9] = clinical testing, Chen et al., 2013; cited from earlier work
[10] = target: His-TEAD1[211-427] (recombinant murine TEAD1 residues 211-427 with polyhistidine tag, from E. coli) (mouse) (UniProt P30051); test: photonic crystal nanobeam sensor, His-TEAD1[211-427] immobilized, curve fitted to the Langmuir equation

- red fluorescence intensity of photoconverted Dendra2 (time lapse imaging) [1]: 5%
- red fluorescence intensity of photoconverted TEAD1-Dendra2 (time lapse imaging) [2]: 18%
- steady-state TEAD1-Dendra2 protein level after Dox (immunoblot) [3]: 50%
Compound: HA-VGLL4 (doxycycline-inducible, pTetO::HA-VGLL4)

Compound: CC(C)C[C@H](NC(=O)[C@H]1O[C@@H]1C(=O)O)C(=O)NCCCCN=C(N)N (relative stereo) [E64, L-trans-Epoxysuccinyl-leucylamido(4-guanidino)butane]
- high salt diet induced heart failure [4]: attenuated high salt diet induced heart failure
- VGLL4-mediated reduction of TEAD1 steady-state levels [5]: reduced VGLL4-mediated reduction of TEAD1 steady-state levels
- reduction of TEAD1 transcriptional activity caused by VGLL4 induction [6]: did not completely abrogate
- luciferase reporter activity ([6]; 8 hours after DOX treatment, P<0.05): significantly increased reporter activity
- destabilizing effect of VGLL4 on TEAD1-Dendra2 [7]: reduced the destabilizing effect of VGLL4 on TEAD1-Dendra2
- beneficial effect in myocardial infarction model [8]: did not show a beneficial effect

Compound: CCOC(=O)[C@H]1O[C@@H]1C(=O)N[C@@H](CC(C)C)C(=O)NCCC(C)C [E64d]
- safety profile [9]: good safety profile

- Kd [10]: 3.1 nM
Compound: synthetic non-acetylated VGLL4 TDU domain peptide with V5 epitope (from UniProt Q14135-4)

Compound: CC(=O)N[C@@H](CC(C)C)C(=O)N[C@@H](CC(C)C)C(=O)N[C@H](C=O)CCCNC(=N)N [leupeptin]
- VGLL4-mediated reduction of TEAD1 steady-state levels [5]: reduced VGLL4-mediated reduction of TEAD1 steady-state levels
